Results taken from the NIST ThermoML archive (doi:10.1016/j.tca.2013.10.035).
± gives the expanded uncertainty stated by the source.

Columns and labels:
[1] = DTA
[2] = Molar enthalpy of transition or fusion; settings: DSC

Structure (SMILES)	Normal melting temperature ([1]; Crystal) [°C]	Molar enthalpy of transition or fusion ([2]; Crystal) [kcal/mol]	Normal melting temperature ([1]; Crystal 1) [°C]	Glass transition temperature [1] [°C]	Normal melting temperature ([1]; Metastable crystal) [°C]	Molar enthalpy of transition or fusion ([2]; Crystal 1) [kcal/mol]	Molar enthalpy of transition or fusion ([2]; Metastable crystal) [kcal/mol]
CC(C)NCC(O)COc1ccc(CC(N)=O)cc1 (stereo not given) [2-(4-(2-hydroxy-3-(isopropylamino)propoxy)phenyl)acetamide]	152.8 ± 0.5	8.99 ± 0.239	–	–	–	–	–
COc1ccc2cc([C@H](C)C(=O)O)ccc2c1 [(S)-(+)-naproxen]	153.6 ± 0.5	6.93 ± 0.191	–	–	–	–	–
CC(=O)Nc1ccc(O)cc1 [N-acetyl-p-aminophenol]	–	–	169.2 ± 0.5	21.2 ± 0.5	156.7 ± 0.5	6.21 ± 0.191	5.95 ± 0.167
COc1ccccc1OCC(O)COC(N)=O (stereo not given) [2-hydroxy-3-(2-methoxyphenoxy)propyl carbamate]	95.4 ± 0.5	9.23 ± 0.263	–	3.2 ± 0.5	–	–	–
Cc1ccccc1OCC(O)CO (stereo not given) [3-(2-methylphenoxy)-1,2-propanediol]	–	–	70.0 ± 0.5	-34.5 ± 0.5	–	7.12 ± 0.215	–
